Legend:
[1] = tested on: differentiated mouse 3T3-L1 cells; assay: Mouse adipocyte lipolysis assay (Lipolysis Assay Kit, ZenBio); type: cell-based; details: 24 hours post-treatment, 3T3-L1 adipocytes
Description: Mouse 3T3-L1 cells were obtained from ATCC and cultured in Dulbecco's Modified Eagle's medium (DMEM) containing 10% newborn calf serum (NCS) and penicillin/streptomycin(P/S) at 37° C. in an incubator with 5% CO2. Once the cells became confluent, they were seeded into a tissue culture treated 96 well plate. Then, differentiation was initiated by using DMEM containing 10% fetal bovine serum, P/S, IBMX, dexamethasone, and insulin. After 14 days of differentiation, cells were treated with compounds of interest. After 24 hours post-treatment, the cell viability was assessed using CellTiter-Glo Luminescent Cell Viability Assay from Promega, and lipolysis was determined using Lipolysis Assay Kit from ZenBio. […] Table 1 lists the compounds that reduced the release of free fatty acids and glycerol (+, ++, or +++). The lipolytic rate of white adipose tissue is associated with metabolic dysfunction including insulin resistance and liver steatosis. Compounds that lower lipolysis of adipocytes may improve metabolic function including improving insulin sensitivity and reducing liver steatosis, thus improving outcomes in subjects with diabetes mellitus (e.g., prediabetes or type II diabetes), obesity, and hyperlipidemia.

mouse myocyte = assay: Mouse myocyte lipolysis assay; type: cell-based; details: differentiated myocytes
Description: Cells were obtained from ATCC and cultured in Dulbecco's Modified Eagle's medium (DMEM) containing 20% fetal bovine serum and 1% penicillin/streptomycin at 37° C. in an incubator with 5% CO2. Once the cells became confluent, they were seeded into a tissue culture treated 96 well plate. The next day, the medium containing DMEM with 2% equine serum was used to start differentiation. Table 2 lists the tested compounds including those that reduced the release of glycerol (+, ++, or +++). The lipolytic rate of muscle triglycerides is associated with metabolic dysfunction including insulin resistance and liver steatosis. Compounds that lower lipolysis of adipocytes may improve metabolic function including improving insulin sensitivity and reducing liver steatosis, thus improving outcomes in patients with diabetes mellitus (e.g., prediabetes or type II diabetes) obesity, and hyperlipidemia.

[2] = Assay 3. In vitro Colonic Material Stability Assay; type: in vitro ADME; details: colonic material slurry, anaerobic, 1 or 10 μM
Description: Assay 3. In vitro Colonic Material Stability Assay. This assay was used to assess the stability of an acylated cinnamic acid in a large intestine. All experiments were performed in an anaerobic chamber containing 90% nitrogen, 5% hydrogen and 5% carbon dioxide. Colonic material was resuspended as a slurry (15% w/v final concentration) in pre-reduced, anaerobically sterilized dilution blanks (Anaerobe Systems AS-908). The colonic material was then inoculated into 96 well plates containing YCFAC media (Anaerobe Systems AS-680) or other suitable media (6.7 μL slurry into 1 mL total media). A test compound was added to an individual well to reach a final analyte concentration of 1 or 10 μM, and the material was mixed by pipetting. Sample was removed after set timepoints (0, 120, 240, 480, 1440, 2880 minutes after initiation of the assay), quenched with acetonitrile containing internal standard, and analyzed by LC/MS.

[3] = Assay 1. Stability in Simulated Gastric Fluid (SGF); type: in vitro ADME; details: SGF pH 1.6 with pepsin, 1 μM, 37° C.
Description: Assay 1. Stability of conjugates in Simulated Gastric Fluid (SGF). This assay was used to assess the stability of an acylated cinnamic acid in a stomach.
Medium was prepared by dissolving 2 g of sodium chloride in 0.6 L in ultrapure water (MilliQ®, Millipore Sigma, Darmstadt, Germany). The pH was adjusted to 1.6 with 1N hydrochloric acid, and the volume was then adjusted to 1 L with purified water.
60 mg FaSSIF powder (Biorelevant™, London, UK) were dissolved in 500 mL buffer (above). Pepsin was added (0.1 mg/mL) (Millipore Sigma, Darmstadt, Germany), and the solution was stirred. The resulting SGF media were used fresh for each experiment.
A test compound was dissolved in DMSO stock to 1 mM. An aliquot of the DMSO stock solution was removed and diluted in the SGF Media in 15 mL falcon tubes to generate a total compound concentration of 1 μM. A 1 mL aliquot was immediately removed and diluted once with 1 volume of acetonitrile for T0 timepoint. The mixture was sealed and mixed at 37° C. in an incubator. Aliquots (1 mL) were removed at regular intervals and immediately quenched by the addition of 1 volume of acetonitrile. The resulting samples were analyzed by LC/MS to determine degradation rates in SGF.

[4] = Assay 2. Stability in Simulated Intestinal Fluid (SIF); type: in vitro ADME; details: SIF pH 6.7 with pancreatin, 1 μM, 37° C.
Description: Assay 2. Stability of conjugates in Simulated Intestinal Fluid (SIF). This assay was used to assess the stability of an acylated cinnamic acid in a small intestine.
Phosphate buffer was prepared by dissolving 0.42 g of sodium hydroxide pellets and 3.95 g of monobasic sodium phosphate monohydrate and 6.19 g of sodium chloride in ultrapure water (MilliQ®, Millipore Sigma, Darmstadt, Germany). The pH was adjusted to 6.7 using aq. HCl and aq. NaOH, as necessary, and the solution was diluted with ultrapure water to produce 1 L of the pH 6.7 buffer.
112 mg FaSSIF powder (Biorelevant™, London, UK) was dissolved in 50 mL of the pH 6.7 buffer. 2 to 3 mL of the resulting solution were then added to 500 mg pancreatin (Millipore Sigma, Darmstadt, Germany). The resulting mixture was agitated by finger tapping the vessel containing the mixture until milky suspension formed. At this time, the remainder of the 50 mL FaSSiF/pH 6.7 buffer solution was added. The resulting suspension was flipped upside down 10 times to produce SIF, which was used fresh.
A test compound was dissolved in DMSO stock to 1 mM. An aliquot of the DMSO stock solution was removed and diluted in the SIF media in 15 mL falcon tubes to produce a mixture with a tested compound concentration of 1 μM. […] The resulting samples were analyzed by LC/MS to determine degradation rates

C57BL/6 mice = assay: In vivo evaluation in mice fed a high-fat diet (84-day study); design: species or system mouse
Description: Animals were allowed free access to food and drinking water for the entire study. Animals were weighed on a regular basis, and food and drinking water consumption monitored. Plasma and stool samples were collected at the beginning of the study and 42 days into the study. Additional blood was drawn from fasted mice 58 days into the study. Insulin tolerance tests were performed 72 or 73 days into the study. Following an approximate 4 h fast, 0.5 Units/kg insulin was administered intraperitoneally. Blood was collected pre-insulin challenge (t=0) and at t=15, 30, 60, 90, and 120 min following insulin challenge. Oral glucose tolerance tests were performed 79 or 80 days into the study. Following an approximate 4 h fast, 2 g/kg glucose was administered by oral gavage. Blood was collected pre-insulin challenge (t=0) and at t=15, 30, 60, 90, and 120 min following glucose challenge. At the end of the study, body weight, food consumption, blood glucose, serum ALT levels, serum AST levels, serum cholesterol (total cholesterol. HDL, and LDL levels), serum triglycerides levels, liver triglyceride levels, liver cholesterol levels, liver weight, subcutaneous fat pad weight, and epididymal fat pad weight were measured in all mice.

CC(=O)O [Acetic acid]
Lipolysis Free Fatty Acids % DMSO ([1]; 1 mM): ++ (50 >≤ 70%: ++)
Lipolysis Glycerol % change ([1]; 1 mM): + (70% >≤90%: +)
Lipolysis Free Fatty Acids % DMSO ([1]; 3 mM): ++ (50 >≤ 70%: ++)
Lipolysis Glycerol % change ([1]; 3 mM): + (70% >≤90%: +)
Free glycerol % DMSO (mouse myocyte; 1 mM): = (90% >< 100%: =)
Free glycerol % DMSO (mouse myocyte; 3 mM): = (90% >< 100%: =)

CCCC(=O)O [Butyric acid]
Lipolysis Free Fatty Acids % DMSO ([1]; 3 mM): ++ (50 >≤ 70%: ++)
Lipolysis Glycerol % change ([1]; 3 mM): ++ (50 >≤ 70%: ++)
Free glycerol % DMSO (mouse myocyte; 3 mM): +++ (50%<: +++)

O=C(O)/C=C/c1ccc(O)c(O)c1 [Caffeic acid]
Lipolysis Free Fatty Acids % DMSO ([1]; 100 μM): +++ (50%≤: +++)
Lipolysis Glycerol % change ([1]; 100 μM): +++ (50%≤: +++)
Free glycerol % DMSO (mouse myocyte; 100 μM): +++ (50%<: +++)

CCC(=O)O [Propionic acid]
Lipolysis Free Fatty Acids % DMSO ([1]; 3 mM): +++ (50%≤: +++)
Lipolysis Glycerol % change ([1]; 3 mM): ++ (50 >≤ 70%: ++)
Free glycerol % DMSO (mouse myocyte; 3 mM): ++ (50 >< 70%: ++)

CC(=O)Oc1ccc(/C=C/C(=O)O)cc1OC(C)=O [compound 3, diacetyl caffeic acid]
Assay 3 (% Remaining at 24 h) [2]: A (<25% of the tested compound remaining)
Assay 1 (SGF) (% Remaining @ 1 hour) [3]: C (>75% of the tested compound remaining)
Assay 2 (SIF) (% @ Remaining 4 hours) [4]: A (<25% of the tested compound remaining)

CC(=O)O[C@@H]1OC[C@@H](OC(C)=O)[C@H](OC(C)=O)[C@H]1OC(C)=O [compound 4]
metabolic markers (e.g., glucose tolerance, insulin tolerance, cholesterol levels) (C57BL/6 mice; mice fed high-fat diet + test article): improve metabolic markers
weight loss (C57BL/6 mice; mice fed high-fat diet, over the study): induce weight loss

From patent US20220296555A1, “ACYLATED ACTIVE AGENTS AND METHODS OF THEIR USE FOR THE TREATMENT OF METABOLIC DISORDERS AND NONALCOHOLIC FATTY LIVER DISEASE” (Flagship Pioneering Innovations V, Inc., priority 2019, published 2022)
